Assay results: article PMC6234229, “The role of loops B and C in determining the potentiation of GABAA receptors by midazolam” (Pharmacology Research & Perspectives, 2018)

Columns and labels:
Assay in all cases: GABA concentration-response assay, whole-cell patch clamp, HEK293T
Type in all cases: cell-based
Details in all cases: GABA Hill fit
[1] = target: T1, α1(T163P)β2γ2 GABAA receptor (Homo sapiens, UniProt P14867+P18507+P47870, T190P)
T1 construct: expressed in transfected cells; host or cells: HEK293T
Description: (§1) Human (Homo sapiens) GABAA subunits (α1‐6, β2, γ2s) were subcloned into pcDNA3.1+ vectors with a cytomegalovirus (CMV) promoter. The hβ2 and hα3 sequences were humanized rat (Rattus norvegicus) cDNA with amino acid substitutions made to match the human protein sequence. The α1‐3, α5, β2, and γ2s subunits were a generous gift from Neil L. Harrison (Columbia University Medical Center, NY). The α4 subunit was obtained from GenScript (Piscataway, NJ), and the α6 subunit was a generous gift from Robert L. McDonald (Vanderbilt University, TN). All point mutations (listed in Figure 1C) were introduced using the QuikChange Lightening site‐directed mutagenesis kit (Agilent Technologies, Santa Clara, CA) according to the manufacturer's instructions and were confirmed by sequencing (Eurofins MWG Operon, Louisville, KY).
(§2) Human embryonic kidney cells containing the SV40 T‐antigen (HEK293T) were acquired from American Type Culture Collection (ATCC®, Manassas, VA), catalogue number, CRL3216. HEK293T cells were maintained at 37°C and 5% CO2 in Eagle Minimum Essential Medium (MEM) supplemented with 5% fetal bovine serum (Atlanta Biologicals Inc., Flowery Branch, GA), 40 μM L‐glutamine, 100 U/mL penicillin and 0.1 mM streptomycin. Cells were passaged regularly when they reached 70% confluency using trypsin. Cells were not passaged more than 22 times. New cells were revived from frozen stocks at passage 2‐4. Cells used for in vitro electrophysiology experiments were grown on poly‐D‐lysine‐coated glass coverslips (No.2, VWR, Radnor, PA) and transfected with X‐tremeGENE (Roche Diagnostics, Indianapolis, IN) with the desired receptor subunit cDNAs at a 1:1:1 ratio to express αxβ2γ2s receptors (2 μg total cDNA) and with 0.5 μg green fluorescent protein (GFP) as an expression marker. The γ2s incorporation into receptors was tested with zinc inhibition assays regularly.24 Patch clamp experiments were performed on cells at 24‐72 hours post‐transfection. All experiments were performed at 22°C. Experiments consisted of at least five cells recorded per day from at least two transfections across 3‐4 days to control for cell health and transfection efficiency. At least three cells expressing wild‐type receptors were recorded on days that mutant receptors were tested to provide a time‐matched expression control. All reagents were purchased from Sigma‐Aldrich (St. Louis, MO) unless otherwise stated.
(§3) Extracellular solution contained 161 mM NaCl, 3 mM KCl, 1 mM MgCl2, 1.5 mM CaCl2, 10 mM HEPES, and 6 mM D‐glucose, adjusted to pH 7.4 with NaOH (320‐330 mOsm). […] The perfusion system was controlled by protocols written in pClamp 9 (Molecular Devices, LLC., Sunnyvale, CA). Whole‐cell currents were recorded at ‐60 mV, filtered at 100 Hz and sampled at 200 Hz with a MultiClamp 700B amplifier (Molecular Devices, LLC) and DigiData 1322A (Molecular Devices, LLC) digitizer. […] Cells were recorded with the midazolam protocol no more than two times to avoid desensitization and incomplete washout or irreversible modulation.
(§4) Recordings were analyzed using MATLAB (Math Works, Inc., Natick, MA). […] The maximum peak current, EC50 and Hill coefficient were estimated for assays from each cell. When Hill parameters are estimated from whole‐cell recordings, the changes in the parameters across receptor conditions can be ascribed to the following changes in receptor physiology. Changes in maximum current can be due to changes in the single‐channel conductance or the rate of desensitization. Changes in cell surface receptor expression can cause minor changes in maximum current, but are unlikely to occur in the time course of our experimental protocol. […] More often minor changes in the Hill coefficient are attributed to the altered homogeneity in the receptor population expressed by the HEK293T cell. For example, a shallower Hill coefficient could be caused by a shift in the population of receptors from mostly αβγ receptors to a combination of both αβ and αβγ receptors.

[2] = target: T2, α2(H101R)β2γ2 GABAA receptor (Homo sapiens, UniProt P18507+P47869+P47870, H129R)
T2 construct: expressed in transfected cells; host or cells: HEK293T
T2 sequence (P47869 29-451 H129R): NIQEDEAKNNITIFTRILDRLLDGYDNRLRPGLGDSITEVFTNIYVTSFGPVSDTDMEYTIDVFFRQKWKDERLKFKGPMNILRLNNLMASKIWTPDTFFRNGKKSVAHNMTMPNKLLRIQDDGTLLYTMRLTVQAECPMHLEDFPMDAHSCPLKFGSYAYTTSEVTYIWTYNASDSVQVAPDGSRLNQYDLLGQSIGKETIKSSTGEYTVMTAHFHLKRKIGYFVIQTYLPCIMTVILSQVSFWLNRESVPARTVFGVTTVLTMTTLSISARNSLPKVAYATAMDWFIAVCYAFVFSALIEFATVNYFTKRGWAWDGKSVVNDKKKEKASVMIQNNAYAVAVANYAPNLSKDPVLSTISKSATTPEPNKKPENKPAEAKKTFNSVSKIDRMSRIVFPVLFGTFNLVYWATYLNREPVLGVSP
T2 sequence (P47870 25-512 limits assumed): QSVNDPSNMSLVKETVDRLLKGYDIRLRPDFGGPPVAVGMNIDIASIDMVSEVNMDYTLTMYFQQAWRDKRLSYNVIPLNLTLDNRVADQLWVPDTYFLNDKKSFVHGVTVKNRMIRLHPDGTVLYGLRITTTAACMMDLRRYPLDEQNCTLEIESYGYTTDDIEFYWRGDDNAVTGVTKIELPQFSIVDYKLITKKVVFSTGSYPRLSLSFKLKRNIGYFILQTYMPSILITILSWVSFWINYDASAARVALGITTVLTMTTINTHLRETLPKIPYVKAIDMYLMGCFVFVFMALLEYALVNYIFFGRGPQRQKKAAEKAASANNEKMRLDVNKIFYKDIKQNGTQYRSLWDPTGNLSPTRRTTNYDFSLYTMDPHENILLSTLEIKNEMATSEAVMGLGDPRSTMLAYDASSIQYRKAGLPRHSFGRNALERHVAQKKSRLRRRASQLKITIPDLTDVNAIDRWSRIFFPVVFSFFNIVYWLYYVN
T2 sequence (P18507 40-467 isoform P18507-1 limits assumed, stated change not applied): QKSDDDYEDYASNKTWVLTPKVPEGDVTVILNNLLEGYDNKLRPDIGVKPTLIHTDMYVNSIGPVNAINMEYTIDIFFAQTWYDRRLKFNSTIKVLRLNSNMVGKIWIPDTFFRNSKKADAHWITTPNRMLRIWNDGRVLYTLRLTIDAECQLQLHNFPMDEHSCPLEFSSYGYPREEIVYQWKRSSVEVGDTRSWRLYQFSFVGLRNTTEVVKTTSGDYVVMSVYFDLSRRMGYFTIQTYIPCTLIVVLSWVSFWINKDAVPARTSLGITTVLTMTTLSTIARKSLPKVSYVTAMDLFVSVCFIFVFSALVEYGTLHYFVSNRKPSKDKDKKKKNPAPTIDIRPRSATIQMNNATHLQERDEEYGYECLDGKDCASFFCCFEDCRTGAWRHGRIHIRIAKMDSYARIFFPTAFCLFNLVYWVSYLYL
Description: as §1, §2, §3, §4

[3] = target: T3, α2(S205I)β2γ2 GABAA receptor (Homo sapiens, UniProt P18507+P47869+P47870, S233I)
T3 construct: expressed in transfected cells; host or cells: HEK293T
Description: as §1, §2, §3, §4

[4] = target: T4, α2(T162P)β2γ2 GABAA receptor (Homo sapiens, UniProt P18507+P47869+P47870, T190P)
T4 construct: expressed in transfected cells; host or cells: HEK293T
T4 sequence (P47869 29-451 T190P): as the sequence (P47869 29-451 H129R) above, with R101H, T162P counted along it
T4 sequence (P47870 25-512 limits assumed): as the sequence (P47870 25-512 limits assumed) above
T4 sequence (P18507 40-467 isoform P18507-1 limits assumed, stated change not applied): as the sequence (P18507 40-467 isoform P18507-1 limits assumed, stated change not applied) above
Description: as §1, §2, §3, §4

[5] = target: T5, α3(H126R)β2γ2 GABAA receptor (Homo sapiens, UniProt P18507+P34903+P47870, H154R)
T5 construct: expressed in transfected cells; host or cells: HEK293T
T5 sequence (P34903 29-492 H154R): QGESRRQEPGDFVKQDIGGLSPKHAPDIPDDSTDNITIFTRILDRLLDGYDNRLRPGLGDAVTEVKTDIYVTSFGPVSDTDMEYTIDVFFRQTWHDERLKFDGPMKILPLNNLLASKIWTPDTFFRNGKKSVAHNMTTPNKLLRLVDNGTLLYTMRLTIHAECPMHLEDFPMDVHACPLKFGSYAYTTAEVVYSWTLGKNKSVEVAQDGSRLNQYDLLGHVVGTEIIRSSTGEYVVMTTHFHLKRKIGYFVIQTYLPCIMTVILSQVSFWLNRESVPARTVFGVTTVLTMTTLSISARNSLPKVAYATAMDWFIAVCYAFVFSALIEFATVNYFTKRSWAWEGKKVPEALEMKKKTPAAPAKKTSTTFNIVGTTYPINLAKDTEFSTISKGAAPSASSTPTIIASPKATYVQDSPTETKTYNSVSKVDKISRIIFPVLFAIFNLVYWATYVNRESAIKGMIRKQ
T5 sequence (P47870 25-512 limits assumed): as the sequence (P47870 25-512 limits assumed) above
T5 sequence (P18507 40-467 isoform P18507-1 limits assumed, stated change not applied): as the sequence (P18507 40-467 isoform P18507-1 limits assumed, stated change not applied) above
Description: as §1, §2, §3, §4

[6] = target: T6, α3(T187P)β2γ2 GABAA receptor (Homo sapiens, UniProt P18507+P34903+P47870, T215P)
T6 construct: expressed in transfected cells; host or cells: HEK293T
Description: as §1, §2, §3, §4

[7] = target: T7, α4(I204S)β2γ2 GABAA receptor (Homo sapiens, UniProt P18507+P47870+P48169, I239S)
T7 construct: expressed in transfected cells; host or cells: HEK293T
Description: as §1, §2, §3, §4

[8] = target: T8, α4(P161T)β2γ2 GABAA receptor (Homo sapiens, UniProt P18507+P47870+P48169, P196T)
T8 construct: expressed in transfected cells; host or cells: HEK293T
Description: as §1, §2, §3, §4

[9] = target: T9, α4β2γ2 GABAA receptor (Homo sapiens, UniProt P18507+P47870+P48169)
T9 construct: expressed in transfected cells; host or cells: HEK293T
Description: as §1, §2, §3, §4

[10] = target: T10, α5(P166T)β2γ2 GABAA receptor (Homo sapiens, UniProt P18507+P31644+P47870, P197T)
T10 construct: expressed in transfected cells; host or cells: HEK293T
Description: as §1, §2, §3, §4

[11] = target: T11, α5β2γ2 GABAA receptor (Homo sapiens, UniProt P18507+P31644+P47870)
T11 construct: expressed in transfected cells; host or cells: HEK293T
Description: as §1, §2, §3, §4

[12] = target: T12, α6(N204I)β2γ2 GABAA receptor (Homo sapiens, UniProt P18507+P47870+Q16445, N223I)
T12 construct: expressed in transfected cells; host or cells: HEK293T
Description: as §1, §2, §3, §4

[13] = target: T13, α6β2γ2 GABAA receptor (Homo sapiens, UniProt P18507+P47870+Q16445)
T13 construct: expressed in transfected cells; host or cells: HEK293T
Description: as §1, §2, §3, §4

## NCCCC(=O)O [GABA, γ‐aminobutyric acid]
[1]
  Hill coefficient: 1.230 ± 0.049
  Max Current (pA): -2449 ± 376.1 pA
[2]
  Hill coefficient: 1.443 ± 0.092
  Max Current (pA): -3186 ± 390.8 pA
[3]
  Hill coefficient: 1.452 ± 0.151
  Max Current (pA): -7835 pA
[4]
  Hill coefficient: 1.494 ± 0.101
  Max Current (pA): -1765 ± 246.0 pA
[5]
  Hill coefficient: 1.519 ± 0.88
  Max Current (pA): -3597 ± 343.6 pA
[6]
  Max Current (pA): -1993 ± 189.7 pA
[7]
  Hill coefficient: 1.180 ± 0.072
  Max Current (pA): -3424 ± 394.5 pA
[8]
  Max Current (pA): -4487 ± 397.2 pA
[9]
  Hill coefficient: 1.113 ± 0.063
  Max Current (pA): -3039 ± 347.3 pA
[10]
  Hill coefficient: 1.420 ± 0.064
  Max Current (pA): -4543 ± 553.0 pA
[11]
  Hill coefficient: 1.547 ± 0.123
  Max Current (pA): -5115 ± 315.9 pA
[12]
  Max Current (pA): -3549 ± 408.6 pA
[13]
  Hill coefficient: 1.405 ± 0.074
  Max Current (pA): -3276 ± 578.1 pA
